Measurements as given in patent US9346797B1, “2-amino 6-(difluoromethyl)-5,5-difluoro-6-phenyl-3,4,5,6-tetrahydropyridines as BACE1 inhibitors” (H. Lundbeck A/S, priority 2014, dated 2016).

Biological target: human BACE1 (Homo sapiens (Human), UniProt P56817)
Assay: BACE1 binding assay (SPA-based radioligand binding)
Conditions: pH 4.5, Ki calculated from IC50
Procedure: The binding assay was performed as SPA-based assay using a biotinylated form of human BACE1 recombinantly expressed and subsequently purified from Freestyle HEK293 cells. The binding assay was run in a 50 mM sodium acetate buffer, pH 4.5 containing 50 mM NaCl and 0.03% Tween-20 in white clear bottom 384 plates (Corning #3653). 10 nM (final concentration) radioligand ([^3H]—N-((1S,2R)-1-benzyl-3-cyclopropylamino-2-hydroxy-propyl)-5-(methanesulfonyl-methyl-amino)-N—((R)-1-phenyl-ethyl)-isophthalamide) (TRQ11569 purchased from GE Healthcare) was mixed with test compound at a given concentration, 6 nM (final concentration) human BACE1 and 25 μg Streptavidin coated PVT core SPA beads (RPNQ0007, GE Healthcare Life Sciences) in a total volume of 40 μl. Several concentrations of each test compound were tested in the assay for IC50 determination. The plates were incubated for one hour at room temperature and counted in a Wallac Trilux counter. Total and non-specific binding were determined using buffer and 1 μM (final concentration) of the high affinity BACE1 reference inhibitor (S)-6-[3-chloro-5-(5-prop-1-ynyl-pyridin-3-yl)-thiophen-2-yl]-2-imino-3,6-dimethyl-tetrahydro-pyrimidin-4-one, respectively. For each test compound, a IC50 value (the concentration mediating 50% inhibition of the specific binding of the radioligand) was determined from concentration-response curve and used to calculate the Ki from the equation Ki=IC50/(1+L/Kd), where L and Kd are the final concentration of the radioligand used in the assay and the dissociation constant of the radioligand, respectively. The Kd of the radioligand was determined from saturation binding experiments.

human BACE1, sequence (P56817 46-501): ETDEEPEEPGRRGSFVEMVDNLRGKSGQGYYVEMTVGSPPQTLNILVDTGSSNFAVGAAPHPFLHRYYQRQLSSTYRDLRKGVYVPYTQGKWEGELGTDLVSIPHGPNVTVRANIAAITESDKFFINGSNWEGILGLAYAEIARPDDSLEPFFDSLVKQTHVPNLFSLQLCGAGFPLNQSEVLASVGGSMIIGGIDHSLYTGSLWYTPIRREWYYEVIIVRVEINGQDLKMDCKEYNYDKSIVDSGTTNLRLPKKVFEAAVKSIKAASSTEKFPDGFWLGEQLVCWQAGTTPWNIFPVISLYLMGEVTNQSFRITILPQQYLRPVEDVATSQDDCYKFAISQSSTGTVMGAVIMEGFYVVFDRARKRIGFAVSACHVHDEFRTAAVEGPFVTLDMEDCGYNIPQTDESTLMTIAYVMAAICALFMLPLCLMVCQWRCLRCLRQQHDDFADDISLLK

Ki [nM] | SMILES
6.7 | COc1ccc(C(=O)Nc2ccc(F)c([C@@]3(C(F)F)N=C(N)CCC3(F)F)c2)nc1 [Compound 5, (S)—N-(3-(6-amino-2-(difluoromethyl)-3,3-difluoro-2,3,4,5-tetrahydropyridin-2-yl)-4-fluorophenyl)-5-methoxypicolinamide]
8.5 | COc1cnc(C(=O)Nc2ccc(F)c([C@@]3(C(F)F)N=C(N)CCC3(F)F)c2)cn1 [Compound 3, (S)—N-(3-(6-amino-2-(difluoromethyl)-3,3-difluoro-2,3,4,5-tetrahydropyridin-2-yl)-4-fluorophenyl)-5-methoxypyrazine-2-carboxamide]
